Patent publication US10689377B2 (Mirati Therapeutics, Inc., priority 2017, dated 2020)

These compounds were tested against KRas G12C (Homo sapiens, UniProt P01116, G12C) (assay: Cellular inhibition of KRas G12C measured by Phospho-ERK in NCI-H358 cells). Details: pERK(Thr202/Tyr204) normalized with GAPDH, NCI-H358 cells, 3 hours; read-out: IC50.
Format: cell-based
How it was run: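 Readout is pERK(Thr202/Tyr204) immunofluorescence normalized to GAPDH, expressed as percent of DMSO control and fitted with a 4-parameter curve for IC50. Attached NCI-H358 cells received compound for 3 hours in 0.5% DMSO, followed by fixation and methanol permeabilization.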

KRas G12C, sequence (P01116 1-188 isoform P01116-2 G12C): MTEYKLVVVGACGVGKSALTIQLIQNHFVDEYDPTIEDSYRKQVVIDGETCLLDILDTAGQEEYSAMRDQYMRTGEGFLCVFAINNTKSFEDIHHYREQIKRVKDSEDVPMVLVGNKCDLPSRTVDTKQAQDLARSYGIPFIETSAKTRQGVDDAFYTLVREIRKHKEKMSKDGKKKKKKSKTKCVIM

`C=CC(=O)N1CCN(c2nc(OC[C@@H]3C[C@H](O)CN3C)nc3c2CCN(c2cccc4ccccc24)C3)CC1CC#N` (stereo partly drawn) [Example 419, 2-(1-acryloyl-4-(2-(((2S,4S)-4-hydroxy-1-methylpyrrolidin-2-yl)methoxy)-7-(naphthalen-1-yl)-5,6,7,8-tetrahydropyrido[3,4-d]pyrimidin-4-yl)piperazin-2-yl)acetonitrile] and `C=CC(=O)N1CCN(c2nc(OC[C@H]3CCCCN3C)nc3c2CCN(c2cccc4ccccc24)C3)C[C@@H]1CC#N` [Example 432, 2-((S)-1-acryloyl-4-(2-(((R)-1-methylpiperidin-2-yl)methoxy)-7-(naphthalen-1-yl)-5,6,7,8-tetrahydropyrido[3,4-d]pyrimidin-4-yl)piperazin-2-yl)acetonitrile] fall in the same range of IC50: 0.0001 to 1 µM for the first, 0.0001 to 1 µM for the second.

`C=CC(=O)N1CCN(c2nc(OC[C@@H]3CCCN3C)nc3c2CCN(c2cccc(Cl)c2C)C3)C[C@@H]1CC#N` [Example 420, 2-((S)-1-acryloyl-4-(7-(3-chloro-2-methylphenyl)-2-(((S)-1-methylpyrrolidin-2-yl)methoxy)-5,6,7,8-tetrahydropyrido[3,4-d]pyrimidin-4-yl)piperazin-2-yl)acetonitrile] and `C=CC(=O)N1CCN(c2nc(OC[C@@H]3CCCN3C)nc3c2CCN(c2cccc(Cl)c2Cl)C3)C[C@@H]1CC#N` [Example 421, 2-((S)-1-acryloyl-4-(7-(2,3-dichlorophenyl)-2-(((S)-1-methylpyrrolidin-2-yl)methoxy)-5,6,7,8-tetrahydropyrido[3,4-d]pyrimidin-4-yl)piperazin-2-yl)acetonitrile] fall in the same range of IC50: 0.0001 to 1 µM for the first, 0.0001 to 1 µM for the second.

`C=CC(=O)N1CCN(c2nc(OC[C@@H]3CCCN3C)nc3c2CCN(c2cccc(Cl)c2OC)C3)C[C@@H]1CC#N` [Example 422, 2-((S)-1-acryloyl-4-(7-(3-chloro-2-methoxyphenyl)-2-(((S)-1-methylpyrrolidin-2-yl)methoxy)-5,6,7,8-tetrahydropyrido[3,4-d]pyrimidin-4-yl)piperazin-2-yl)acetonitrile] and `C=CC(=O)N1CCN(c2nc(OC[C@@H]3CCCN3C)nc3c2CCN(c2cccc(C)c2Cl)C3)C[C@@H]1CC#N` [Example 425, 2-((S)-1-acryloyl-4-(7-(2-chloro-3-methylphenyl)-2-(((S)-1-methylpyrrolidin-2-yl)methoxy)-5,6,7,8-tetrahydropyrido[3,4-d]pyrimidin-4-yl)piperazin-2-yl)acetonitrile] fall in the same range of IC50: 0.0001 to 1 µM for the first, 0.0001 to 1 µM for the second.

`CN(C)C/C=C/C(=O)N1CCN(c2nc(OC[C@H]3CCCN3C)nc3c2CCN(c2cccc(Cl)c2C(F)(F)F)C3)C[C@@H]1CC#N` [Example 423, 2-((S)-4-(7-(3-chloro-2-(trifluoromethyl)phenyl)-2-(((R)-1-methylpyrrolidin-2-yl)methoxy)-5,6,7,8-tetrahydropyrido[3,4-d]pyrimidin-4-yl)-1-((E)-4-(dimethylamino)but-2-enoyl)piperazin-2-yl)acetonitrile] and `CN(C)C/C=C/C(=O)N1CCN(c2nc(OC[C@@H]3CCCN3C)nc3c2CCN(c2cccc(Cl)c2C(F)(F)F)C3)C[C@@H]1CC#N` [Example 427] fall in the same range of IC50: 0.0001 to 1 µM for the first, 0.0001 to 1 µM for the second.

`C=CC(=O)N1CCN(c2nc(OC[C@@H]3CCCN3C)nc3c2CCN(c2ccc(F)c(C)c2C)C3)C[C@@H]1CC#N` [Example 424, 2-((S)-1-acryloyl-4-(7-(4-fluoro-2,3-dimethylphenyl)-2-(((S)-1-methylpyrrolidin-2-yl)methoxy)-5,6,7,8-tetrahydropyrido[3,4-d]pyrimidin-4-yl)piperazin-2-yl)acetonitrile] and `C=CC(=O)N1CCN(c2nc(OC[C@@H]3CCCN3C)nc3c2CCN(c2cccc(Cl)c2C(F)(F)F)C3)C[C@@H]1CC#N` [Example 428, 2-((S)-1-acryloyl-4-(7-(3-chloro-2-(trifluoromethyl)phenyl)-2-(((S)-1-methylpyrrolidin-2-yl)methoxy)-5,6,7,8-tetrahydropyrido[3,4-d]pyrimidin-4-yl)piperazin-2-yl)acetonitrile] fall in the same range of IC50: 0.0001 to 1 µM for the first, 0.0001 to 1 µM for the second.

`C=CC(=O)N1CCN(c2nc(OC[C@@H]3C[C@@H](O)CN3C)nc3c2CCN(c2cccc(Cl)c2C(F)(F)F)C3)C[C@@H]1CC#N` [Example 426, 2-((S)-1-acryloyl-4-(7-(3-chloro-2-(trifluoromethyl)phenyl)-2-(((2S,4R)-4-hydroxy-1-methylpyrrolidin-2-yl)methoxy)-5,6,7,8-tetrahydropyrido[3,4-d]pyrimidin-4-yl)piperazin-2-yl)acetonitrile] and `C=CC(=O)N1CCN(c2nc(OC[C@@H]3C[C@@H](F)CN3C)nc3c2CCN(c2cccc(C)c2C)C3)C[C@@H]1CC#N` [Example 437, 2-((S)-1-acryloyl-4-(7-(2,3-dimethylphenyl)-2-(((2S,4R)-4-fluoro-1-methylpyrrolidin-2-yl)methoxy)-5,6,7,8-tetrahydropyrido[3,4-d]pyrimidin-4-yl)piperazin-2-yl)acetonitrile] fall in the same range of IC50: 0.0001 to 1 µM for the first, 0.0001 to 1 µM for the second.

`C=CC(=O)N1CCN(c2nc(OC[C@@H]3CCCN3C)nc3c2CCN(c2cccc4ccccc24)C3)CC1COC` (stereo partly drawn) [Example 429, 1-(2-(methoxymethyl)-4-(2-(((S)-1-methylpyrrolidin-2-yl)methoxy)-7-(naphthalen-1-yl)-5,6,7,8-tetrahydropyrido[3,4-d]pyrimidin-4-yl)piperazin-1-yl)prop-2-en-1-one] and `C=CC(=O)N1CCN(c2nc(OC[C@@H]3CCCN3C)nc3c2CCN(c2cccc4ccccc24)C3)C[C@@H]1CCOC` [Example 433, 1-((S)-2-(2-methoxyethyl)-4-(2-(((S)-1-methylpyrrolidin-2-yl)methoxy)-7-(naphthalen-1-yl)-5,6,7,8-tetrahydropyrido[3,4-d]pyrimidin-4-yl)piperazin-1-yl)prop-2-en-1-one] cannot be ordered by IC50: greater than 1 µM for the first, greater than 1 µM for the second.

`C=CC(=O)N1CCN(c2nc(OC[C@@H]3CCCN3C)nc3c2CCN(c2cccc4ccncc24)C3)C[C@@H]1CC#N` [Example 430] and `C=CC(=O)N1CCN(c2nc(OC[C@@H]3CCCN3C)nc3c2CCN(c2cccc4ccn(C)c24)C3)C[C@@H]1CC#N` [Example 436, 2-((S)-1-acryloyl-4-(7-(1-methyl-1H-indol-7-yl)-2-(((S)-1-methylpyrrolidin-2-yl)methoxy)-5,6,7,8-tetrahydropyrido[3,4-d]pyrimidin-4-yl)piperazin-2-yl)acetonitrile] fall in the same range of IC50: 0.0001 to 1 µM for the first, 0.0001 to 1 µM for the second.

First: C=CC(=O)N1CCN(c2nc(OC[C@@H]3CCCN3C)nc3c2CCN(c2nncc4ccccc24)C3)C[C@@H]1CC#N [Example 431, 2-((S)-1-acryloyl-4-(2-(((S)-1-methylpyrrolidin-2-yl)methoxy)-7-(phthalazin-1-yl)-5,6,7,8-tetrahydropyrido[3,4-d]pyrimidin-4-yl)piperazin-2-yl)acetonitrile]
Second: C=CC(=O)N1CCN(c2nc(OC[C@@H]3CCCN3C)nc3c2CCN(c2cccc4cccc(C(F)(F)F)c24)C3)C[C@@H]1CC#N [Example 434, 2-((S)-1-acryloyl-4-(2-(((S)-1-methylpyrrolidin-2-yl)methoxy)-7-(8-(trifluoromethyl)naphthalen-1-yl)-5,6,7,8-tetrahydropyrido[3,4-d]pyrimidin-4-yl)piperazin-2-yl)acetonitrile]
The IC50 of the first is higher: greater than 1 µM for the first, 0.0001 to 1 µM for the second. The second is the more potent here.
